Key:
bedstraw = assay: Test B pre/postemergence bedstraw; assay type: in vivo, Galium aparine; conditions: Postemergence; for Plant response rating, Bedstraw: scale 0 to 10, 0 is no effect, 10 is complete control; for Bedstraw plant response rating: scale of 0 to 10 where 0 is no effect and 10 is complete control
How it was run: (§1)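 Response is a visual 0-to-10 score relative to untreated plants, where 0 means no effect and 10 means complete control, taken twelve to sixteen days after application. Treatments went onto soil at planting and onto foliage of 1- to 4-leaf plants, using a surfactant-containing non-phytotoxic solvent.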

blackgrass = assay: Test B pre/postemergence blackgrass; assay type: in vivo, Alopecurus myosuroides
How it was run: as §1

surinam grass = assay: Test B pre/postemergence surinam grass; assay type: in vivo, Brachiaria decumbens
How it was run: as §1

cocklebur = assay: Test B pre/postemergence cocklebur; assay type: in vivo, Xanthium strumarium
How it was run: as §1

corn = assay: Test B pre/postemergence corn; assay type: in vivo, Zea mays
How it was run: as §1

crabgrass = assay: Test B pre/postemergence crabgrass; assay type: in vivo, Digitaria sanguinalis
How it was run: as §1

giant foxtail = assay: Test B pre/postemergence giant foxtail; assay type: in vivo, Setaria faberii
How it was run: as §1

morningglory = assay: Test B pre/postemergence morningglory; assay type: in vivo, Ipomoea hederacea
How it was run: as §1

pigweed = assay: Test B pre/postemergence pigweed; assay type: in vivo, Amaranthus retroflexus
How it was run: as §1

rape = assay: Test B pre/postemergence rape; assay type: in vivo, Brassica napus
How it was run: as §1

soybean = assay: Test B pre/postemergence soybean; assay type: in vivo, Glycine max
How it was run: as §1

sugar beet = assay: Test B pre/postemergence sugar beet; assay type: in vivo, Beta vulgaris
How it was run: as §1

velvetleaf = assay: Test B pre/postemergence velvetleaf; assay type: in vivo, Abutilon theophrasti
How it was run: as §1

wheat = assay: Test B pre/postemergence wheat; assay type: in vivo, Triticum aestivum
How it was run: as §1

wild oat = assay: Test B pre/postemergence wild oat; assay type: in vivo, Avena fatua
How it was run: as §1

purple nutsedge = assay: Test B pre/postemergence purple nutsedge; assay type: in vivo, Cyperus rotundus
How it was run: as §1

rice = assay: Test B flood test rice; assay type: in vivo, Oryza sativa
How it was run: (§2)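 Each value is a visual injury score relative to controls, with 10 meaning complete control and 0 no effect. Evaluation took place twelve to sixteen days after the 2-leaf-stage plants were treated and kept in the greenhouse.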

smallflower flatsedge = assay: Test B flood test smallflower flatsedge; assay type: in vivo, Cyperus difformis
How it was run: as §2

duck salad = assay: Test B flood test duck salad; assay type: in vivo, Heteranthera limosa
How it was run: as §2

bamyardgrass = assay: Test B flood test barnyardgrass; assay type: in vivo, Echinochloa crus-galli
How it was run: as §2

[1] = Postemergence, Rate 125 g/ha, scale 0 to 10, 0 is no effect, 10 is complete control
[2] = Postemergence, Rate 250 g/ha, scale 0 to 10, 0 is no effect, 10 is complete control
[3] = Postemergence, Rate 500 g/ha, scale of 0 to 10 where 0 is no effect and 10 is complete control
[4] = Preemergence, Rate 62 g/ha, scale 0 to 10 (0 no effect, 10 complete control)
[5] = Preemergence, Rate 125 g/ha, scale of 0 to 10 where 0 is no effect and 10 is complete control
[6] = Preemergence, Rate 250 g/ha, scale of 0 to 10 where 0 is no effect and 10 is complete control
[7] = Preemergence, Rate 500 g/ha, scale 0 to 10, 0 is no effect, 10 is complete control
[8] = Rate 62 g/ha, Postemergence, scale of 0 to 10 where 0 is no effect and 10 is complete control
[9] = Preemergence, Rate 250 g/ha, scale 0 to 10, 0 is no effect, 10 is complete control
[10] = Rate 62 g/ha, flood test species, Pre-emergence, visual evaluation after twelve to sixteen days
[11] = Rate 125 g/ha, under heading Pre-emergence, flood test species, visual evaluation after twelve to sixteen days
[12] = Rate 250 g/ha, Pre-emergence, flood-test species, scale 0 to 10, 0 is no effect, 10 is complete control
[13] = Rate 500 g/ha, Pre-emergence, flood test species, scale 0 to 10 (0 no effect, 10 complete control)

CC(C)N(C(=O)n1oc(=O)n(C)c1=O)c1ccccc1 [Compound 409]
Plant response rating, Bedstraw (bedstraw; Rate 125 g/ha): 2
Plant response rating, Bedstraw (bedstraw; Rate 250 g/ha): 2
Bedstraw plant response rating (bedstraw; Rate 500 g/ha): 5
Bedstraw plant response rating (bedstraw; Rate 62 g/ha): 0
Plant response rating, Blackgrass (blackgrass; [1]): 8
Plant response rating, Blackgrass (blackgrass; [2]): 9
Blackgrass plant response rating (blackgrass; [3]): 10
Plant response rating, Blackgrass (blackgrass; [4]): 4
Plant response rating, Blackgrass (blackgrass; [5]): 7
Blackgrass plant response rating (blackgrass; [6]): 10
Blackgrass plant response rating (blackgrass; [7]): 10
Blackgrass plant response rating (blackgrass; [8]): 6
Plant response rating, B. signalgrass (surinam grass; [1]): 5
Plant response rating, B. signalgrass (surinam grass; [2]): 8
B. signalgrass plant response rating (surinam grass; [3]): 9
Plant response rating, B. signalgrass (surinam grass; [4]): 0
Plant response rating, B. signalgrass (surinam grass; [5]): 4
B. signalgrass plant response rating (surinam grass; [6]): 7
B. signalgrass plant response rating (surinam grass; Preemergence, Rate 500 g/ha, scale of 0 to 10 where 0 is no effect and 10 is complete control): 9
B. signalgrass plant response rating (surinam grass; [8]): 3
Plant response rating, Cocklebur (cocklebur; [1]): 0
Cocklebur plant response rating (cocklebur; [3]): 1
Plant response rating, Cocklebur (cocklebur; [4]): 0
Plant response rating, Cocklebur (cocklebur; [5]): 0
Cocklebur plant response rating (cocklebur; [7]): 2
Cocklebur plant response rating (cocklebur; [8]): 0
Plant response rating, Corn (corn; [1]): 5
Plant response rating, Corn (corn; [2]): 7
Corn plant response rating (corn; [3]): 7
Plant response rating, Corn (corn; [4]): 7
Plant response rating, Corn (corn; [5]): 8
Corn plant response rating (corn; [9]): 8
Corn plant response rating (corn; [7]): 10
Corn plant response rating (corn; [8]): 0
Plant response rating, Crabgrass (crabgrass; [1]): 9
Plant response rating, Crabgrass (crabgrass; [2]): 9
Crabgrass plant response rating (crabgrass; [3]): 9
Plant response rating, Crabgrass (crabgrass; [4]): 9
Plant response rating, Crabgrass (crabgrass; [5]): 9
Crabgrass plant response rating (crabgrass; [9]): 10
Crabgrass plant response rating (crabgrass; [7]): 10
Crabgrass plant response rating (crabgrass; [8]): 6
Plant response rating, Giant foxtail (giant foxtail; [1]): 8
Plant response rating, Giant foxtail (giant foxtail; [2]): 9
Giant foxtail plant response rating (giant foxtail; [3]): 9
Plant response rating, Giant foxtail (giant foxtail; [4]): 9
Plant response rating, Giant foxtail (giant foxtail; [5]): 10
Giant foxtail plant response rating (giant foxtail; [9]): 10
Giant foxtail plant response rating (giant foxtail; [7]): 10
Giant foxtail plant response rating (giant foxtail; [8]): 8
Plant response rating, Morningglory (morningglory; [2]): 9
Morningglory plant response rating (morningglory; [3]): 10
Plant response rating, Morningglory (morningglory; [4]): 0
Plant response rating, Morningglory (morningglory; [5]): 2
Morningglory plant response rating (morningglory; [9]): 5
Morningglory plant response rating (morningglory; [7]): 5
Plant response rating, Redroot pigweed (pigweed; [2]): 4
Redroot pigweed plant response rating (pigweed; [3]): 5
Plant response rating, Redroot pigweed (pigweed; [4]): 7
Plant response rating, Redroot pigweed (pigweed; [5]): 8
Redroot pigweed plant response rating (pigweed; [9]): 8
Redroot pigweed plant response rating (pigweed; [7]): 10
Plant response rating, Rape (rape; [2]): 3
Plant response rating, Rape (rape; [4]): 0
Plant response rating, Rape (rape; [5]): 0
Rape plant response rating (rape; [9]): 4
Rape plant response rating (rape; [7]): 6
Plant response rating, Soybean (soybean; [2]): 5
Soybean plant response rating (soybean; [3]): 5
Plant response rating, Soybean (soybean; [4]): 0
Plant response rating, Soybean (soybean; [5]): 0
Soybean plant response rating (soybean; [9]): 1
Soybean plant response rating (soybean; [7]): 8
Plant response rating, Sugarbeets (sugar beet; [2]): 0
Sugarbeets plant response rating (sugar beet; [3]): 0
Plant response rating, Sugarbeets (sugar beet; [4]): 2
Plant response rating, Sugarbeets (sugar beet; [5]): 7
Sugarbeets plant response rating (sugar beet; [9]): 8
Sugarbeets plant response rating (sugar beet; [7]): 9
Plant response rating, Velvetleaf (velvetleaf; [2]): 0
Velvetleaf plant response rating (velvetleaf; [3]): 0
Plant response rating, Velvetleaf (velvetleaf; [4]): 2
Plant response rating, Velvetleaf (velvetleaf; [5]): 5
Velvetleaf plant response rating (velvetleaf; [9]): 6
Velvetleaf plant response rating (velvetleaf; [7]): 8
Wheat plant response rating (wheat; [3]): 7
Plant response rating, Wheat (wheat; [4]): 4
Plant response rating, Wheat (wheat; [5]): 8
Wheat plant response rating (wheat; [9]): 9
Wheat plant response rating (wheat; [7]): 10
Wild oats plant response rating (wild oat; [3]): 4
Plant response rating, Wild oats (wild oat; [4]): 0
Plant response rating, Wild oats (wild oat; [5]): 5
Wild oats plant response rating (wild oat; [9]): 7
Wild oats plant response rating (wild oat; [7]): 8
Plant response rating, Nutsedge (purple nutsedge; [2]): 0
Nutsedge plant response rating (purple nutsedge; [3]): 0
Nutsedge plant response rating (purple nutsedge; [9]): 8
Nutsedge plant response rating (purple nutsedge; [7]): 8
Plant response rating, Rice (0 to 10 scale, 0 is no effect, 10 is complete control) (rice; [10]): 0
Rice plant response rating (0 to 10 scale, 0 is no effect, 10 is complete control) (rice; [11]): 0
Rice plant response rating (rice; [12]): 0
Rice plant response rating (rice; [13]): 0
Plant response rating, S. Flatsedge (0 to 10 scale, 0 is no effect, 10 is complete control) (smallflower flatsedge; [10]): 0
S. Flatsedge plant response rating (0 to 10 scale, 0 is no effect, 10 is complete control) (smallflower flatsedge; [11]): 0
S. Flatsedge plant response rating (smallflower flatsedge; [12]): 2
S. Flatsedge plant response rating (smallflower flatsedge; [13]): 2
Plant response rating, Ducksalad (0 to 10 scale, 0 is no effect, 10 is complete control) (duck salad; [10]): 0
Ducksalad plant response rating (0 to 10 scale, 0 is no effect, 10 is complete control) (duck salad; [11]): 0
Ducksalad plant response rating (duck salad; [12]): 0
Ducksalad plant response rating (duck salad; [13]): 0
Plant response rating, Barnyardgrass (0 to 10 scale, 0 is no effect, 10 is complete control) (bamyardgrass; [10]): 1
Barnyardgrass plant response rating (0 to 10 scale, 0 is no effect, 10 is complete control) (bamyardgrass; [11]): 2
Barnyardgrass plant response rating (bamyardgrass; [12]): 3
Barnyardgrass plant response rating (bamyardgrass; [13]): 3
